According to publication PMC12796071, “Evaluation of [^18F]MNI-1054, a novel PET ligand for lysine-specific histone demethylase 1A (LSD1), in non-human primates” (EJNMMI Research, 2025):
Values joined by “and” are separate entries in the source; they are usually repeats but may differ in a detail not shown here. Identical values can stand only once. “Also recorded” adds a separate entry of the source.

Assays:
[1] = Whole-body PET biodistribution and radiation dosimetry (OLINDA 2.0); assay type: in vivo; conditions: for Dose, Urinary bladder wall: no-bladder-void model; for whole-body effective dose, ED (ICRP-103): scaled from NHP to human
Procedure: Dynamic whole-body PET was conducted in one male (M3, 15.4 kg) and one female (M4, 6.8 kg) rhesus to study the biodistribution and radiation dosimetry of [^18F]MNI-1054. Whole-body images were acquired over ~4 h (17–19 passes, 4 bed positions) using a Biograph mCT PET/CT scanner (Siemens). The images in the series were subsequently reconstructed in 400 × 400 × 300 pixel arrays with pixel size: 2 × 2 × 2 mm^3 using the iterative True-X algorithm (4 iterations, 21 subsets) provided by the camera manufacturer, incorporating point spread function modeling and corrections for random, scatter, normalization, dead-time and attenuation. Prior to PET, each animal received a whole-body CT for correcting attenuation and scatter as well as to assist in anatomical localization of organs of interest.
Reconstructed whole-body PET volumes were transferred to PMOD software (PMOD Technologies, Zurich, Switzerland) for analysis. Decay correction was first removed to facilitate the calculation of radioactive disintegrations from dynamic data. Images were reviewed for assessment of body organ radioactivity distribution. VOIs were manually drawn to capture the following organs: brain, heart wall, lungs, gallbladder, liver, kidneys, spleen, testes (male), urinary bladder, back vertebrae, and intestines, and defined dynamically to account for any animal movement or shift in organ position or shape between acquisitions. Total activity (kBq) within each VOI was determined and organ TACs were generated and expressed as percent of the injected activity.
The number of disintegrations per unit activity administered in each source organ (i.e., the “residence times” or “time-integrated activity coefficients”), τ, were computed from the areas under the non-decay corrected TACs via the trapezoidal method. The area under the curve from the end of imaging to infinity was calculated with the assumption of physical decay only following the last imaging time point. Residence times were converted to adult human values using conversion factors based on differences in organ and body weights between both species. The ICRP 100 HAT gastrointestinal (GI) tract model was applied to estimate residence times in the left, right, and sigmoid (i.e., rectum) colon and small intestine, with the assumption that activity entered the GI tract via the small intestine with no reabsorption. The intestinal decay-corrected time-activity curve was used for estimating the fraction of the radioactivity entering the intestine during imaging. Red marrow residence times were calculated based on assumption that vertebrae contain ~40% of total red marrow.
OLINDA 2.0 software (Hermes Medical Solutions) was used to estimate the organ and whole-body radiation absorbed doses. OLINDA 2.0 performs internal dose calculations based on MIRD and Radiation Dose Assessment Resource (RADAR) methodology. ICRP-89 adult male (73 kg) and female (60 kg) models were used to calculate the s-factors. All other MIRD assumptions about the homogeneity of source organ distribution were employed. The effective doses were computed with biological tissue weighting factors defined in the ICRP Publication 103 [26].

[2] = target: LSD1 (Macaca mulatta, UniProt I2CUD2); test: PET imaging of the testes (baseline and TAK-418 blocking); conditions: baseline scan; M3
Procedure: TAK-418 (3 mg/kg) was administered as an intravenous bolus over 5-min, starting 120 min prior to [^18F]MNI-1054 administration.

Cc1cc([18F])ncc1C(=O)Nc1ccc([C@@H]2C[C@H]2NCC2CC2)cc1 [[^18F]MNI-1054]
Dose, Adrenals ([1]; ICRP-89 adult female model): 2.24E-02 mSv/MBq | Dose, Brain ([1]; ICRP-89 adult female model): 1.22E-02 mSv/MBq | Dose, Breasts ([1]; ICRP-89 adult female model): 1.06E-02 mSv/MBq | Dose, Esophagus ([1]; ICRP-89 adult female model): 1.75E-02 mSv/MBq | Dose, Eyes ([1]; ICRP-89 adult female model): 9.29E-03 mSv/MBq | Dose, Gallbladder wall ([1]; ICRP-89 adult female model): 2.88E-01 mSv/MBq | Dose, Heart wall ([1]; ICRP-89 adult female model): 4.98E-02 mSv/MBq | Dose, Kidneys ([1]; ICRP-89 adult female model): 5.28E-02 mSv/MBq | Dose, Left colon ([1]; ICRP-89 adult female model): 3.02E-02 mSv/MBq | Dose, Liver ([1]; ICRP-89 adult female model): 2.29E-02 mSv/MBq | Dose, Lungs ([1]; ICRP-89 adult female model): 6.16E-02 mSv/MBq | Dose, Osteogenic cells ([1]; ICRP-89 adult female model): 1.36E-02 mSv/MBq | Dose, Ovaries ([1]; ICRP-89 adult female model): 1.66E-02 mSv/MBq | Dose, Pancreas ([1]; ICRP-89 adult female model): 2.12E-02 mSv/MBq | Dose, Rectum ([1]; ICRP-89 adult female model): 1.88E-02 mSv/MBq | Dose, Red marrow ([1]; ICRP-89 adult female model): 2.01E-02 mSv/MBq | Dose, Right colon ([1]; ICRP-89 adult female model): 6.29E-02 mSv/MBq | Dose, Salivary glands ([1]; ICRP-89 adult female model): 1.01E-02 mSv/MBq | Dose, Small intestine ([1]; ICRP-89 adult female model): 6.01E-02 mSv/MBq | Dose, Spleen ([1]; ICRP-89 adult female model): 2.77E-02 mSv/MBq | Dose, Stomach wall ([1]; ICRP-89 adult female model): 1.69E-02 mSv/MBq | Dose, Thymus ([1]; ICRP-89 adult female model): 1.88E-02 mSv/MBq | Dose, Thyroid ([1]; ICRP-89 adult female model): 1.32E-02 mSv/MBq | Dose, Total body ([1]; ICRP-89 adult female model): 1.53E-02 mSv/MBq | Dose, Uterus ([1]; ICRP-89 adult female model): 1.92E-02 mSv/MBq | Dose, Urinary bladder wall ([1]; ICRP-89 adult female model): 5.92E-02 mSv/MBq | whole-body effective dose, ED (ICRP-103) ([1]; ICRP-89 adult female model): 0.0272 mSv/MBq and 2.72E-02 mSv/MBq | Dose, Adrenals ([1]; ICRP-89 adult male model): 1.87E-02 mSv/MBq | Dose, Brain ([1]; ICRP-89 adult male model): 9.69E-03 mSv/MBq | Dose, Esophagus ([1]; ICRP-89 adult male model): 1.49E-02 mSv/MBq | Dose, Eyes ([1]; ICRP-89 adult male model): 7.78E-03 mSv/MBq | Dose, Gallbladder wall ([1]; ICRP-89 adult male model): 6.57E-02 mSv/MBq | Dose, Heart wall ([1]; ICRP-89 adult male model): 4.90E-02 mSv/MBq | Dose, Kidneys ([1]; ICRP-89 adult male model): 4.63E-02 mSv/MBq | Dose, Left colon ([1]; ICRP-89 adult male model): 1.62E-02 mSv/MBq | Dose, Liver ([1]; ICRP-89 adult male model): 3.02E-02 mSv/MBq | Dose, Lungs ([1]; ICRP-89 adult male model): 4.01E-02 mSv/MBq | Dose, Osteogenic cells ([1]; ICRP-89 adult male model): 1.21E-02 mSv/MBq | Dose, Pancreas ([1]; ICRP-89 adult male model): 1.48E-02 mSv/MBq | Dose, Prostate ([1]; ICRP-89 adult male model): 1.78E-02 mSv/MBq | Dose, Rectum ([1]; ICRP-89 adult male model): 1.60E-02 mSv/MBq | Dose, Red marrow ([1]; ICRP-89 adult male model): 1.65E-02 mSv/MBq | Dose, Right colon ([1]; ICRP-89 adult male model): 2.37E-02 mSv/MBq | Dose, Salivary glands ([1]; ICRP-89 adult male model): 9.10E-03 mSv/MBq | Dose, Small intestine ([1]; ICRP-89 adult male model): 2.08E-02 mSv/MBq | Dose, Spleen ([1]; ICRP-89 adult male model): 1.84E-02 mSv/MBq | Dose, Stomach wall ([1]; ICRP-89 adult male model): 1.42E-02 mSv/MBq | Dose, Testes ([1]; ICRP-89 adult male model): 3.17E-02 mSv/MBq | Dose, Thymus ([1]; ICRP-89 adult male model): 1.44E-02 mSv/MBq | Dose, Thyroid ([1]; ICRP-89 adult male model): 1.14E-02 mSv/MBq | Dose, Total body ([1]; ICRP-89 adult male model): 1.16E-02 mSv/MBq | Dose, Urinary bladder wall ([1]; ICRP-89 adult male model): 1.24E-01 mSv/MBq | whole-body effective dose, ED (ICRP-103) ([1]; ICRP-89 adult male model): 0.0267 mSv/MBq and 2.67E-02 mSv/MBq | Dose, Adrenals ([1]; Mean): 2.06E-02 mSv/MBq | Dose, Brain ([1]; Mean): 1.09E-02 mSv/MBq | Dose, Breasts ([1]; Mean): 1.06E-02 mSv/MBq | Dose, Esophagus ([1]; Mean): 1.62E-02 mSv/MBq | Dose, Eyes ([1]; Mean): 8.54E-03 mSv/MBq | Dose, Gallbladder wall ([1]; Mean): 0.18 mSv/MBq and 0.177 mSv/MBq and 1.77E-01 mSv/MBq | Dose, Heart wall ([1]; Mean): 4.94E-02 mSv/MBq | Dose, Kidneys ([1]; Mean): 4.96E-02 mSv/MBq | Dose, Left colon ([1]; Mean): 2.32E-02 mSv/MBq | Dose, Liver ([1]; Mean): 2.66E-02 mSv/MBq | Dose, Lungs ([1]; Mean): 5.09E-02 mSv/MBq | Dose, Osteogenic cells ([1]; Mean): 1.29E-02 mSv/MBq | Dose, Ovaries ([1]; Mean): 1.66E-02 mSv/MBq | Dose, Pancreas ([1]; Mean): 1.80E-02 mSv/MBq | Dose, Prostate ([1]; Mean): 1.78E-02 mSv/MBq | Dose, Rectum ([1]; Mean): 1.74E-02 mSv/MBq | Dose, Red marrow ([1]; Mean): 1.83E-02 mSv/MBq | Dose, Right colon ([1]; Mean): 4.33E-02 mSv/MBq | Dose, Salivary glands ([1]; Mean): 9.60E-03 mSv/MBq | Dose, Small intestine ([1]; Mean): 4.05E-02 mSv/MBq | Dose, Spleen ([1]; Mean): 2.31E-02 mSv/MBq | Dose, Stomach wall ([1]; Mean): 1.56E-02 mSv/MBq | Dose, Testes ([1]; Mean): 3.17E-02 mSv/MBq | Dose, Thymus ([1]; Mean): 1.66E-02 mSv/MBq | Dose, Thyroid ([1]; Mean): 1.23E-02 mSv/MBq | Dose, Total body ([1]; Mean): 1.35E-02 mSv/MBq | Dose, Uterus ([1]; Mean): 1.92E-02 mSv/MBq | Dose, Urinary bladder wall ([1]; Mean): 0.0916 mSv/MBq and 9.16E-02 mSv/MBq | whole-body effective dose, ED (ICRP-103) ([1]; Mean): 2.70E-02 mSv/MBq | whole-body effective dose per 185 MBq injected ([1]; female value): 5.03 mSv | maximal dose allowed for a single study per 21 CFR § 361.1 ([1]; gallbladder wall as the dose-limiting organ): 282.5 MBq | elimination pathways ([1]; whole-body imaging): eliminated via both hepatobiliary and urinary pathways; also recorded: urinary (primary) and hepatobiliary pathways | testes uptake (SUV) [2]: ~ 2
